This note sets out measurements from article PMC4854315, “Discovery of a novel allosteric inhibitor-binding site in ERK5: comparison with the canonical kinase hinge ATP-binding site” (Acta Crystallographica. Section D, Structural Biology, 2016).

The inhibition is the drop in the measured response relative to a control, in per cent.

Some results are limits rather than exact numbers.

Experiment in all cases: Z'-LYTE kinase panel
What all share (assay type): biochemical

One assay deals with T1, SGK2 (Homo sapiens, UniProt Q9HBY8).
T1 construct: purchased ThermoFisher (SelectScreen, Z'-LYTE)
T1 sequence (Q9HBY8 1-367): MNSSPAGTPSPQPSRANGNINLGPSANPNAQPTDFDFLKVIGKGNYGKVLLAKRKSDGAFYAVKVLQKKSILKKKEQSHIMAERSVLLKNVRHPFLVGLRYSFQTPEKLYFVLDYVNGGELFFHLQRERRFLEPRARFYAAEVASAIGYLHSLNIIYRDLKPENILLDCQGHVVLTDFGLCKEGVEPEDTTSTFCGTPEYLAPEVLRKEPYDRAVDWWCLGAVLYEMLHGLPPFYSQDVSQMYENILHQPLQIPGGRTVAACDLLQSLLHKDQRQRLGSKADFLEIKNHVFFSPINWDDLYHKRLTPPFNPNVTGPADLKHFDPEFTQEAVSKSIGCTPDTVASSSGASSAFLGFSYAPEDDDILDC
Put shortly:
(§1)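 Single-point screen, 10 µM compound; % inhibition read by Z′-LYTE (FRET-based) format per standard protocol; 225-kinase panel.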

The target of another assay is T2, PRKCB1 (PKC beta I) (Homo sapiens, UniProt P05771).
T2 construct: purchased ThermoFisher (SelectScreen, Z'-LYTE)
T2 sequence (P05771 whole entry): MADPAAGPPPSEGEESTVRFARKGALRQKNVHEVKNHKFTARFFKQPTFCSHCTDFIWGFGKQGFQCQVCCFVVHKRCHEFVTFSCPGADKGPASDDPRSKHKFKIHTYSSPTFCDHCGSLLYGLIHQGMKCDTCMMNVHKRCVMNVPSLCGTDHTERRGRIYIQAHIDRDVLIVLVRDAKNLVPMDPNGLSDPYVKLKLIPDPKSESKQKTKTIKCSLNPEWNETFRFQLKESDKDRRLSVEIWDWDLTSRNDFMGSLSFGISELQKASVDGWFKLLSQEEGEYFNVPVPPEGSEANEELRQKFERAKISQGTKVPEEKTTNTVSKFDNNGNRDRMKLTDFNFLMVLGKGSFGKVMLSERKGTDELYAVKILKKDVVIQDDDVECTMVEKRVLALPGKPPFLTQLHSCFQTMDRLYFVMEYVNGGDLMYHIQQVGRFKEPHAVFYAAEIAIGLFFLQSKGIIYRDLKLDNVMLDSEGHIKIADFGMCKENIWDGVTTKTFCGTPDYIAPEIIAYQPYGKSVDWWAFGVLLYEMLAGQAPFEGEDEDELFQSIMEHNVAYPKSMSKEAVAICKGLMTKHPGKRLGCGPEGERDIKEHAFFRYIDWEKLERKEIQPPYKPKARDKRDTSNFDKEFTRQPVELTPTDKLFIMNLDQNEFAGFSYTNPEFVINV
Put shortly:
as §1

Another assay has as its target T3, GSK3A (GSK3 alpha) (Homo sapiens, UniProt P49840).
T3 construct: purchased ThermoFisher (SelectScreen, Z'-LYTE)
The settings on record: 10 µM compound, ATP Km app. The method in brief:
as §1

The target in a further assay is T4, LYN A (Homo sapiens, UniProt P07948).
T4 construct: purchased ThermoFisher (SelectScreen, Z'-LYTE)
T4 sequence (P07948 whole entry): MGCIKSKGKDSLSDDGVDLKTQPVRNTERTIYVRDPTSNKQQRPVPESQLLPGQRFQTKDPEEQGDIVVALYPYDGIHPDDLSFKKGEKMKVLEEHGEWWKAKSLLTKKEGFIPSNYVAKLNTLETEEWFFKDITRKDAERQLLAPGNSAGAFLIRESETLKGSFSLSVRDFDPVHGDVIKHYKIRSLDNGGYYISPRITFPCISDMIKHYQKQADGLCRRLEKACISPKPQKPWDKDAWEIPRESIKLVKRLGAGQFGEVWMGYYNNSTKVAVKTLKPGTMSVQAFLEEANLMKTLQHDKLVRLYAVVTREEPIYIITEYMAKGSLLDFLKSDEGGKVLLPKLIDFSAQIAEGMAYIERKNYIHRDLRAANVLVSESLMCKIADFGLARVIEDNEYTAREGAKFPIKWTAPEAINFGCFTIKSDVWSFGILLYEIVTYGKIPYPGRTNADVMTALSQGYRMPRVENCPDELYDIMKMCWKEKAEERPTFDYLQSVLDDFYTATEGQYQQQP
The method in brief: as §1

The next assay deals with T5, FYN (Homo sapiens, UniProt P06241).
T5 construct: purchased ThermoFisher (SelectScreen, Z'-LYTE)
T5 sequence (P06241 whole entry): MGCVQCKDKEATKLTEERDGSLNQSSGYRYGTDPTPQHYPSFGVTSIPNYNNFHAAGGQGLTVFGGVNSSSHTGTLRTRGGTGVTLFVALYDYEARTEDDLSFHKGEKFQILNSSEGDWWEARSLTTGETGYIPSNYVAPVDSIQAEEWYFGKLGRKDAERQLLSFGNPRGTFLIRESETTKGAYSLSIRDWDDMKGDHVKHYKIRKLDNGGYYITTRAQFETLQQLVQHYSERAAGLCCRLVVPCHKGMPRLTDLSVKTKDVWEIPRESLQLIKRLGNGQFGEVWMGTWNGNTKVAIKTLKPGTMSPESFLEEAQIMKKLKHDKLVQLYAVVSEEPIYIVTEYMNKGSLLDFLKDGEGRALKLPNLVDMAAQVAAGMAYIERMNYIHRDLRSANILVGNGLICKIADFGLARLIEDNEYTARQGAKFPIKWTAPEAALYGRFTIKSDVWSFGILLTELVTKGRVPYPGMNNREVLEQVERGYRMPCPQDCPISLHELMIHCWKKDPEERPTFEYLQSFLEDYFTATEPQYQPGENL
The method in brief:
as §1

The target in another assay is T6, STK22B (TSSK2) (Homo sapiens, UniProt Q96PF2).
T6 construct: purchased ThermoFisher (SelectScreen, Z'-LYTE)
T6 sequence (Q96PF2 1-358): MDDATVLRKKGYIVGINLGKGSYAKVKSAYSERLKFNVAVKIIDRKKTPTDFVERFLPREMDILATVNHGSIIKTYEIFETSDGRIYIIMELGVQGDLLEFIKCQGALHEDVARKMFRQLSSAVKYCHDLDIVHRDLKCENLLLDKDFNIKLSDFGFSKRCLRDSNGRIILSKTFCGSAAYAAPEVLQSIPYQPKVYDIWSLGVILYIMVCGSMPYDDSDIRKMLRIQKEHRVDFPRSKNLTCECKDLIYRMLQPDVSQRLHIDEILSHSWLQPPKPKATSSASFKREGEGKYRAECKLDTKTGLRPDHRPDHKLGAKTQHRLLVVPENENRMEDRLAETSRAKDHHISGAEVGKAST
The method in brief: as §1

Another assay deals with T7, PRKCQ (PKC theta) (Homo sapiens, UniProt Q04759).
T7 construct: purchased ThermoFisher (SelectScreen, Z'-LYTE)
T7 sequence (Q04759 whole entry): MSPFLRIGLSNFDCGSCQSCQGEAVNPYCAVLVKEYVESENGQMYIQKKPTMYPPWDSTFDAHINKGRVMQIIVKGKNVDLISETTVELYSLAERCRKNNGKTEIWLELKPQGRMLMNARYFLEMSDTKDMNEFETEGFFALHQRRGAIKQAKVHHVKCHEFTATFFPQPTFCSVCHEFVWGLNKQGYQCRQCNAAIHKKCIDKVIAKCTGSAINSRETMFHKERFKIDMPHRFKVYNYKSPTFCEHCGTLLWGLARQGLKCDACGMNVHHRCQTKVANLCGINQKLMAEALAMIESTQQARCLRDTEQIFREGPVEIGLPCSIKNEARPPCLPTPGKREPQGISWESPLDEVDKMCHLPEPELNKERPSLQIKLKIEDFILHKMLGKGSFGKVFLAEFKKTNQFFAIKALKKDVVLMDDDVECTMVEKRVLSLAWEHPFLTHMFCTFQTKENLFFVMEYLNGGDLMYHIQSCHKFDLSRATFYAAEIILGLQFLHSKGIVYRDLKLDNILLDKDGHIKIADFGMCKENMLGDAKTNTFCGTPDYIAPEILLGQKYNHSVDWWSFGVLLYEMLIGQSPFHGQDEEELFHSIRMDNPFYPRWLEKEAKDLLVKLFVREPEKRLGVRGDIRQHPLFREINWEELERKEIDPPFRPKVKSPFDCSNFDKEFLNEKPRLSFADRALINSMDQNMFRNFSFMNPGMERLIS
Put shortly:
as §1

A further assay has as its target T8, NTRK1 (TRKA) (Homo sapiens, UniProt P04629).
T8 construct: purchased ThermoFisher (SelectScreen, Z'-LYTE)
The method in brief: as §1

A further assay has as its target T9, GSK3B (GSK3 beta) (Homo sapiens, UniProt P49841).
T9 construct: purchased ThermoFisher (SelectScreen, Z'-LYTE)
The method in brief: as §1

Another assay concerns the target T10, PAK6 (Homo sapiens, UniProt Q9NQU5).
T10 construct: purchased ThermoFisher (SelectScreen, Z'-LYTE)
Put shortly: as §1

The target of a further assay is T11, TEK (Tie2) (Homo sapiens, UniProt Q02763).
T11 construct: purchased ThermoFisher (SelectScreen, Z'-LYTE)
The method in brief: as §1

A further assay concerns the target T12, PDGFRA (PDGFR alpha) (Homo sapiens, UniProt P16234).
T12 construct: purchased ThermoFisher (SelectScreen, Z'-LYTE)
Put shortly:
as §1

The target in another assay is T13, GRK5 (Homo sapiens, UniProt P34947).
T13 construct: purchased ThermoFisher (SelectScreen, Z'-LYTE)
The method in brief: as §1

A further assay deals with T14, EEF2K (Homo sapiens, UniProt O00418).
T14 construct: purchased ThermoFisher (SelectScreen, Z'-LYTE)
The method in brief:
as §1

A further assay deals with T15, IRAK4 (Homo sapiens, UniProt Q9NWZ3).
T15 construct: purchased ThermoFisher (SelectScreen, Z'-LYTE)
T15 sequence (Q9NWZ3 1-460): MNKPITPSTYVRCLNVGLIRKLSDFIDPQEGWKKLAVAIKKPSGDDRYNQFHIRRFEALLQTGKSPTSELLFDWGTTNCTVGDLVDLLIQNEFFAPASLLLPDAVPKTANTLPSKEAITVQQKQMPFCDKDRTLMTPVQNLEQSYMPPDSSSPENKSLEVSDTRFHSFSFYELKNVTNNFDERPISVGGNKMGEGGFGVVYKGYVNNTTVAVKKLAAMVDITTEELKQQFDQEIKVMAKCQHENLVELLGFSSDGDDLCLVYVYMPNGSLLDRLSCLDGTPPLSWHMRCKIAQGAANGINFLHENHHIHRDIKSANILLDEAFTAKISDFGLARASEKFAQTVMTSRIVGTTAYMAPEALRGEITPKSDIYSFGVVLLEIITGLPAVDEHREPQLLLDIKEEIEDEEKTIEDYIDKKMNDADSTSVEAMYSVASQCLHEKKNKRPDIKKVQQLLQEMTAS
Put shortly:
as §1

The target of a further assay is T16, BRAF (Homo sapiens, UniProt P15056).
T16 construct: purchased ThermoFisher (SelectScreen, Z'-LYTE)
The following applies: 10 µM compound; ATP 100. Put shortly:
as §1

Another assay has as its target T17, MAPKAPK3 (Homo sapiens, UniProt Q16644).
T17 construct: purchased ThermoFisher (SelectScreen, Z'-LYTE)
The method in brief:
as §1

The next assay concerns the target T18, TYK2 (Homo sapiens, UniProt P29597).
T18 construct: purchased ThermoFisher (SelectScreen, Z'-LYTE)
The settings on record: 10 µM compound, ATP Km app. Put shortly: as §1

For a further assay, the target named is T19, MST4 (Homo sapiens, UniProt Q9P289).
T19 construct: purchased ThermoFisher (SelectScreen, Z'-LYTE)
The method in brief: as §1

The target in another assay is T20, DYRK1A (Homo sapiens, UniProt Q13627).
T20 construct: purchased ThermoFisher (SelectScreen, Z'-LYTE)
Put shortly: as §1

The target of another assay is T21, PLK3 (Homo sapiens, UniProt Q9H4B4).
T21 construct: purchased ThermoFisher (SelectScreen, Z'-LYTE)
T21 sequence (Q9H4B4 whole entry): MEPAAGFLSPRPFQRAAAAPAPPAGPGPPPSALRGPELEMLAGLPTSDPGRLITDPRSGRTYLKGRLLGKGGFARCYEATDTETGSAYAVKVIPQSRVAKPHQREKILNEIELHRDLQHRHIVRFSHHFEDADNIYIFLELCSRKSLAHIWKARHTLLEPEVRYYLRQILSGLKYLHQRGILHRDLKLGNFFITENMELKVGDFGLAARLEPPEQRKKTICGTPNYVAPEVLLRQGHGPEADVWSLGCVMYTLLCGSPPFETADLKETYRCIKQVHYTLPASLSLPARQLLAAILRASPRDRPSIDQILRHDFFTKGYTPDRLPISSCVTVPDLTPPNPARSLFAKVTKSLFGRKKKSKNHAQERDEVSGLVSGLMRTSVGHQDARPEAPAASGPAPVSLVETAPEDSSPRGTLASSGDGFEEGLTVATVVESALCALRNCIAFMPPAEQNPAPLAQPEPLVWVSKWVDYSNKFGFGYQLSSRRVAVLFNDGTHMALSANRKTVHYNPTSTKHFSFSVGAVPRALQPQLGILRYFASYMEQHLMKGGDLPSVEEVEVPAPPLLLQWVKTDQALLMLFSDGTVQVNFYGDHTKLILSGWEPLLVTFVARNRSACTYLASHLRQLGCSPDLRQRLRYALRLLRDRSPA
The method in brief: as §1

For a further assay, the target named is T22, IGF1R (Homo sapiens, UniProt P08069).
T22 construct: purchased ThermoFisher (SelectScreen, Z'-LYTE)
T22 sequence (P08069 31-1367): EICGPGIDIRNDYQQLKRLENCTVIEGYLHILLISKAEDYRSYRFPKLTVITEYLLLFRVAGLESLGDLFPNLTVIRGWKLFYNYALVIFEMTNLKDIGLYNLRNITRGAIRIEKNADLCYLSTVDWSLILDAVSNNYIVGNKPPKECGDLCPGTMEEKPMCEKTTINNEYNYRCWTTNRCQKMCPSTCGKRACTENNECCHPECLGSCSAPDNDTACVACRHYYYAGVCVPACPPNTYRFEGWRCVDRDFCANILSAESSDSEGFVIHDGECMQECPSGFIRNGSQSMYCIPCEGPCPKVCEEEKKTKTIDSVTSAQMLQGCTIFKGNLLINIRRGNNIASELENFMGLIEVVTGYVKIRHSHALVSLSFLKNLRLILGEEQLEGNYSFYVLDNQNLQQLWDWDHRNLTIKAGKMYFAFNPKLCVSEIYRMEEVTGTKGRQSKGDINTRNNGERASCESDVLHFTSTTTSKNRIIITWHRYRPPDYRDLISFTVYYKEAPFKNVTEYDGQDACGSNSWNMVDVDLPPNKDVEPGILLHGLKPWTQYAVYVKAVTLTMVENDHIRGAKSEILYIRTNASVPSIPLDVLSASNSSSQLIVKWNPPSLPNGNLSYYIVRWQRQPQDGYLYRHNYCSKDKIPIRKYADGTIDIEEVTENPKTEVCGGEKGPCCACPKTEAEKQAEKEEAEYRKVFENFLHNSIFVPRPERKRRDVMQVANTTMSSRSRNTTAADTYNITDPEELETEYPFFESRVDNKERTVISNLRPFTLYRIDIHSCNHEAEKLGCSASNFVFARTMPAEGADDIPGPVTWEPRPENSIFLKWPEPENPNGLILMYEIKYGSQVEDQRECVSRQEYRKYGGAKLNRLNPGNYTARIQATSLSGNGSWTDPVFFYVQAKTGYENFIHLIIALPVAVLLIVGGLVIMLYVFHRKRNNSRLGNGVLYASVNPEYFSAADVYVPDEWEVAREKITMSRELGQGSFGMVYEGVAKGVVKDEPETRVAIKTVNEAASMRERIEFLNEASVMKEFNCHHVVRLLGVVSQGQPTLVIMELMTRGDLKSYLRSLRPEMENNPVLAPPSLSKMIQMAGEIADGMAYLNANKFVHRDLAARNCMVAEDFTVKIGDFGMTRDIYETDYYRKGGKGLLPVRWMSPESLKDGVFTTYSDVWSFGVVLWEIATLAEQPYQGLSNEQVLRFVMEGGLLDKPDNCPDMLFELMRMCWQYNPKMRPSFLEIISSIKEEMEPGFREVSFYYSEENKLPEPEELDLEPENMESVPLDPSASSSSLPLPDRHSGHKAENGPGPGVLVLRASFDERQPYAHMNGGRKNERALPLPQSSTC
Put shortly:
as §1

T9 sequence (P49841 whole entry): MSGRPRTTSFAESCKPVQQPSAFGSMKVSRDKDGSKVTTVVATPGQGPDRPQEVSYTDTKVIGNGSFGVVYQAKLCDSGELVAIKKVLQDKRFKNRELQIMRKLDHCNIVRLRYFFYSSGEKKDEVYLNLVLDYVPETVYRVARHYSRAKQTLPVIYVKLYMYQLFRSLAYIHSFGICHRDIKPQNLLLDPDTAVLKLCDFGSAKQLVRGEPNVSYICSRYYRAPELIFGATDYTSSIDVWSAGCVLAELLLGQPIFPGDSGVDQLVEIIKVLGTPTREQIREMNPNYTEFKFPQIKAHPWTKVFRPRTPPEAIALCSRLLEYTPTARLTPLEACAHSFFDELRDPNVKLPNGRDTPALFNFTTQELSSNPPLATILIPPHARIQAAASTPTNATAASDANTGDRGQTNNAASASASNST

For the molecule `Cc1ncc(-c2nc(Nc3ccc(C(=O)NCCN4CCCCC4)cc3)ncc2F)n1C(C)C` [Compound 3], the inhibition at 10 µM is 66% against SGK2; 86% at PRKCB1 (PKC beta I); 98% at GSK3A (GSK3 alpha); 88% against LYN A; 74% on FYN; -7% against STK22B (TSSK2). Moreover, the inhibition at 10 µM is 80% at PRKCQ (PKC theta); 76% on NTRK1 (TRKA); 101% against GSK3B (GSK3 beta); 27% against PAK6; 73% on TEK (Tie2); 62% at PDGFRA (PDGFR alpha). Besides, the inhibition at 10 µM against GRK5 amounted to 39%; against EEF2K it was 1.51%; on IRAK4, 71%; on BRAF it was 90%; against MAPKAPK3, 18%; against TYK2, 101%. In addition, the inhibition at 10 µM against MST4 amounted to 75%; at DYRK1A, 93%; against PLK3, 73%; at IGF1R, 67%.

For `Cc1cc(Nc2nc(N)nn2C(=O)NC(C)C)ccc1Cl` [Compound 5], the inhibition at 10 µM against SGK2 was -20%; on PRKCB1 (PKC beta I), 2.25%; against GSK3A (GSK3 alpha), over 80%; on LYN A, 25%; against FYN, 15%; on STK22B (TSSK2), -10%. For the same molecule, the inhibition at 10 µM on PRKCQ (PKC theta) was -8%; against NTRK1 (TRKA), 36%; on GSK3B (GSK3 beta), 79%; against PAK6 it was 14%; on TEK (Tie2) it was 40%; against PDGFRA (PDGFR alpha), 22%. For the same molecule, the inhibition at 10 µM at GRK5 was -0.422%; at EEF2K it was -5.55%; on IRAK4, -2.32%; against BRAF it was 12%; at MAPKAPK3 it was -5%; on TYK2, over 80%. Also, the inhibition at 10 µM was 43% against MST4, 1.48% against DYRK1A, 18% on PLK3 and -0.717% against IGF1R. In addition, the “GSK3A (GSK3 alpha) % Inhibition” value on GSK3A (GSK3 alpha) (listed as SN1109056190, 10 µM) worked out at 82%. Further, the “TYK2 % Inhibition” value at TYK2 (listed as SN1109056190, 10 µM) stood at 94%.

“XMD8-92 [Compound 2, reference compound]”: the “SGK2 % Inhibition” value on SGK2 (10 µM compound, ATP Km app) came to 68%. The “PRKCB1 (PKC beta I) % Inhibition” value on PRKCB1 (PKC beta I) (10 µM compound, ATP Km app) is listed as 13%. Besides, on GSK3A (GSK3 alpha), the “GSK3A (GSK3 alpha) % Inhibition” value worked out at 35%. Moreover, the “LYN A % Inhibition” value on LYN A (10 µM compound, ATP Km app) is 66%. Also, the “FYN % Inhibition” value at FYN (10 µM compound, ATP Km app) is reported as -14%. The “STK22B (TSSK2) % Inhibition” value on STK22B (TSSK2) (10 µM compound, ATP Km app) is on record as -0.837%. Moreover, the “PRKCQ (PKC theta) % Inhibition” value on PRKCQ (PKC theta) (10 µM compound, ATP Km app) was found to be 52%. In addition, the “NTRK1 (TRKA) % Inhibition” value on NTRK1 (TRKA) (10 µM compound, ATP Km app) is 43%. In addition, the “GSK3B (GSK3 beta) % Inhibition” value on GSK3B (GSK3 beta) (10 µM compound, ATP Km app) was determined as 88%. At PAK6 (10 µM compound, ATP Km app), the “PAK6 % Inhibition” value was determined as 33%. In addition, the “TEK (Tie2) % Inhibition” value at TEK (Tie2) (10 µM compound, ATP Km app) stood at 6.54%. Also, the “PDGFRA (PDGFR alpha) % Inhibition” value at PDGFRA (PDGFR alpha) (10 µM compound, ATP Km app) is 8%. For the same molecule, the “GRK5 % Inhibition” value at GRK5 (10 µM compound, ATP Km app) came to 6%. The “EEF2K % Inhibition” value on EEF2K (10 µM compound, ATP Km app) is given as -6%. Further, the “IRAK4 % Inhibition” value at IRAK4 (10 µM compound, ATP Km app) is -9%. The “BRAF % Inhibition” value at BRAF came to 15%. Also, on MAPKAPK3 (10 µM compound, ATP Km app), the “MAPKAPK3 % Inhibition” value came out at 96%. Also, the “TYK2 % Inhibition” value at TYK2 worked out at 36%. The “MST4 % Inhibition” value at MST4 (10 µM compound, ATP Km app) amounted to 15%. Also, the “DYRK1A % Inhibition” value at DYRK1A (10 µM compound, ATP Km app) is listed as 2%. Besides, the “PLK3 % Inhibition” value on PLK3 (10 µM compound, ATP Km app) is 99%. Further, the “IGF1R % Inhibition” value on IGF1R (10 µM compound, ATP Km app) is recorded as -1.87%.
